Peptide text beside a SMILES is read from it.
Tests used:
[1] = system: A549 lung adenocarcinoma cell line; experiment: Cell viability assay (MTT); assay type: cell-based, human; details: Table S2; MTT, 24 h; mean ± sd; N = 2 independent measurements with six technical replicates each (Figs S6-S8); read-out: A549 EC50 /µM
Description: (§1) 10% fetal bovine serum and 1% penicillin-streptomycin (Thermo Fisher Scientific, Waltham, MA, USA). The cultures were kept at 37°C in a 5% CO2 atmosphere incubator (Thermo Fisher Scientific, Waltham, MA, USA) and split every two to three days to new culture flasks. Cells no older than 20 passages were used for experiments.
(§2) For splitting, the cell culture media was aspirated, the cells were washed with 0.01 M phosphate buffered saline (PBS, Gibco, Thermo Fisher Scientific, Waltham, MA, USA) and trypsin-EDTA (trypsin - ethylene diamine tetraacetic acid, Fisher scientific, UK) was added to the cell layer to detach them from the flask surface. After incubation for 2 min at 37°C, cells were resuspended with an equal volume of DMEM media and centrifuged at 310 g for 5 min at 4°C. After removal of the supernatant the cells were resuspended in DMEM cell media and split into new cell culture flasks at a 1/3 to 1/5 ratio.
(§3) Determination of the anticancer peptides half effective concentration (EC50) was performed by a 3-(4,5-dimethylthiazol-2-yl)-2,5-diphenyltetrazolium bromide (MTT) assay, as described elsewhere21. Briefly, […] were seeded in each well of a 96-well plate and left to adhere and […]
(§4) sulfoxide (DMSO, Fisher Scientific, UK) at an intermediate concentration of 1 mM. The peptides were then diluted in a 2-fold dilution series starting at 100 μM with DMEM culture media. Cells were incubated with the peptide solutions for 24 h. After this time, the cell media was removed and the cells were incubated for 1 h with a 0.5 mg mL−1 MTT solution to allow enough time for formazan crystal formation (Sigma Aldrich, Steinheim, Germany). The supernatant was removed and 100 μL of DMSO were added into each well to resuspend the formazan crystals.
(§5) After manually shaking the plates to completely dissolve the crystals, the absorbance was measured at 540 nm in a Tecan Infinity M1000 spectrophotometer. The cell viability was determined based on the quantification of the color intensity in each culture well, considering the absorbance obtained by the control media without peptides as a 100% survival. The resultant sigmoidal curves were analyzed with the drc22 R package using a log-logistic model

[2] = system: MCF7 breast adenocarcinoma cell line; experiment: Cell viability assay (MTT); assay type: cell-based, human; details: Table S2, 24 h, mean ± sd, N = 2 independent measurements with six technical replicates each (Figs S6-S8)
Description: as §1, §2, §3, §4, §5

[3] = system: noncancer HDMEC primary cells (human dermal microvascular endothelial cells); experiment: Cell viability assay (MTT); assay type: cell-based; details: Table S2; noncancer primary cells; MTT, 24 h; mean ± sd; N = 2 independent measurements with six technical replicates each (Figs S6-S8)
Description: as §1, §2, §3, §4, §5

[4] = system: human erythrocytes; experiment: Hemolysis assay; assay type: cell-based; details: 1 h
Description: Human erythrocytes were freshly ordered at the Blutspende Zürich. Erythrocytes were washed 3 times with a […] phosphate buffered saline (PBS, Gibco, Thermo Fisher Scientific, Waltham, MA, USA) solution centrifuging at 800 g for 10 min or until the supernatant appeared clear to remove the blood plasma. A 5% v/v erythrocytes : PBS solution was prepared for direct use. For HC50 determination, peptides were dissolved in PBS at an intermediate concentration of 1 mM. A dilution series of the peptide from 200 to 6.25 μM was plated in a round-bottomed 96-well plate in triplicates, with a volume of 50 μL per well. PBS buffer and a solution of 0.1% Triton-X-100 (Fisher Chemical, Loughborough, UK) in PBS were employed as negative and positive controls, respectively. 50 μL of the 5% erythrocyte solution were added in each well and the plates were incubated at 37°C for 1 h. After this time, 100 μL PBS were added to each well and plates were centrifuged at 800 g for 10 min. 100 μL of the supernatant were transferred to a flat-bottomed 96-well plate and the absorbance was measured at 540 nm in a Tecan Infinity M1000 spectrophotometer plate reader. The hemolysis percentage was calculated, considering the absorbance values of the Triton and PBS wells as 100% and 0% hemolysis, respectively.
The resultant sigmoidal curves were analyzed with the drc22 R package using a log-logistic model with 3 fixed parameters to obtain the HC50 values. […]
NCI-60 screening procedure […]
Each peptide was tested in a 5-concentration assay, starting at 10^-4 M and diluting 10-fold to the lowest 10^-8 M concentration. The peptides were incubated for 48 h and the cell concentration was assayed by using the sulforhodamine B assay25 and optical density measurements. The growth inhibition (GI50) value24, measures the growth inhibitory power of the drug agent. The GI50 value is the concentration of the test drug for which the condition in Eq. S1 is met, where T is the optical density of the test well after a 48-h exposure to the peptide, T0 the optical density before applying the peptide drug and C the control optical density of a well where no peptide was applied.

SMILES	EC50 [1] [µM]	EC50 [2] [µM]	EC50 [3] [µM]	Eryhtr. HC50 /µM ([4]; red cells of human) [µM]	Eryhtr. HC50 /µM ([4]; Table S2, 5% v/v erythrocytes in PBS added 1:1, peptide 200 to 6.25 µM, 37°C, absorbance 540 nm, 0.1% Triton-X-100 = 100%, mean ± sd, N = 2 independent, three technical replicates) [µM]
CC[C@H](C)[C@H](NC(=O)[C@H](CCCCN)NC(=O)CNC(=O)[C@@H](NC(=O)[C@@H](NC(=O)[C@H](Cc1c[nH]cn1)NC(=O)[C@H](Cc1c[nH]c2ccccc12)NC(=O)[C@@H]1CCCN1C(=O)[C@H](CCCCN)NC(=O)[C@H](CCCCN)NC(=O)[C@H](CC(C)C)NC(=O)[C@H](Cc1ccccc1)NC(=O)[C@H](Cc1c[nH]cn1)NC(=O)[C@H](CCCNC(=N)N)NC(=O)[C@H](Cc1ccccc1)NC(=O)[C@H](CCCCN)NC(=O)[C@H](CCCCN)NC(=O)[C@H](Cc1ccc(O)cc1)NC(=O)[C@H](CC(C)C)NC(=O)[C@@H](N)[C@@H](C)O)C(C)C)C(C)C)C(N)=O [Off2.3] (H-TLYKKFRHFLKKPWHVVGKI-NH2)	> 100	65 ± 3	167 ± 13	> 200	
CC[C@H](C)[C@H](NC(=O)[C@H](CCCNC(=N)N)NC(=O)[C@H](Cc1ccccc1)NC(=O)[C@H](CC(C)C)NC(=O)[C@H](CCCCN)NC(=O)[C@H](CCCCN)NC(=O)[C@H](Cc1c[nH]c2ccccc12)NC(=O)[C@H](Cc1ccc(O)cc1)NC(=O)[C@@H](NC(=O)[C@H](CCCCN)NC(=O)[C@@H](NC(=O)[C@H](CCCCN)NC(=O)[C@H](CCCCN)NC(=O)[C@H](Cc1ccccc1)NC(=O)[C@@H](NC(=O)[C@@H](N)Cc1c[nH]cn1)[C@@H](C)CC)C(C)C)[C@@H](C)O)C(=O)N[C@@H](CC(C)C)C(=O)NCC(=O)N[C@@H](CCCNC(=N)N)C(=O)N[C@@H](Cc1ccccc1)C(N)=O [Off6] (H-HIFKKVKTYWKKLFRILGRF-NH2)	18 ± 2	12 ± 3	5 ± 0.7	16 ± 2	
CC[C@H](C)[C@H](NC(=O)[C@H](CCCCN)NC(=O)[C@H](CCCCN)NC(=O)[C@@H](NC(=O)[C@@H](NC(=O)[C@@H](N)CCC(N)=O)C(C)C)C(C)C)C(=O)N[C@@H](CCCNC(=N)N)C(=O)N[C@H](C(=O)N[C@@H](Cc1c[nH]c2ccccc12)C(=O)N[C@@H](Cc1ccc(O)cc1)C(=O)N[C@@H](Cc1c[nH]cn1)C(=O)N[C@@H](CCCCN)C(=O)N[C@@H](C)C(=O)N[C@@H](Cc1c[nH]c2ccccc12)C(=O)N[C@@H](Cc1c[nH]cn1)C(=O)N[C@H](C(=O)N[C@@H](CC(C)C)C(=O)NCC(=O)N[C@@H](CCCCN)C(=O)N[C@H](C(N)=O)C(C)C)C(C)C)[C@@H](C)O [Off2.2.1] (H-QVVKKIRTWYHKAWHVLGKV-NH2)	> 100	76 ± 15	96 ± 7	> 200	
CC[C@H](C)[C@H](NC(=O)[C@H](CC(C)C)NC(=O)[C@@H](N)CCCNC(=N)N)C(=O)N[C@@H](CCCCN)C(=O)N[C@@H](CCCNC(=N)N)C(=O)N[C@@H](CC(C)C)C(=O)N[C@@H](CCCCN)C(=O)N[C@H](C(=O)N[C@@H](Cc1ccccc1)C(=O)N[C@H](C(=O)N[C@@H](CCCNC(=N)N)C(=O)N[C@@H](CCCCN)C(=O)N[C@H](C(=O)N[C@@H](Cc1c[nH]c2ccccc12)C(=O)N[C@@H](CCCCN)C(=O)N[C@@H](Cc1c[nH]c2ccccc12)C(=O)N[C@H](C(=O)NCC(=O)N[C@@H](Cc1c[nH]cn1)C(=O)N[C@@H](Cc1ccccc1)C(N)=O)C(C)C)[C@@H](C)O)C(C)C)[C@@H](C)O [Off7] (H-RLIKRLKTFVRKTWKWVGHF-NH2)	52 ± 2	39 ± 3	12 ± 3	95 ± 7	
CC[C@H](C)[C@H](NC(=O)[C@H](Cc1c[nH]cn1)NC(=O)[C@H](Cc1c[nH]c2ccccc12)NC(=O)[C@H](C)NC(=O)[C@H](CCCNC(=N)N)NC(=O)[C@H](CCCNC(=N)N)NC(=O)[C@H](CC(C)C)NC(=O)[C@H](Cc1c[nH]c2ccccc12)NC(=O)[C@@H](NC(=O)[C@H](CCCNC(=N)N)NC(=O)[C@@H](NC(=O)[C@H](CCCNC(=N)N)NC(=O)[C@H](CCCNC(=N)N)NC(=O)[C@H](CC(C)C)NC(=O)[C@H](Cc1ccc(O)cc1)NC(=O)[C@@H](N)CCC(N)=O)C(C)C)[C@@H](C)O)C(=O)N[C@@H](CC(C)C)C(=O)NCC(=O)N[C@@H](CCCCN)C(=O)N[C@H](C(N)=O)C(C)C [Off2.2.8] (H-QYLRRVRTWLRRAWHILGKV-NH2)	16.5 ± 0.2	11 ± 0.2	10.3 ± 0.3	21 ± 1	
CC[C@H](C)[C@H](NC(=O)[C@@H]1CCCN1C(=O)[C@H](Cc1c[nH]cn1)NC(=O)[C@H](Cc1ccccc1)NC(=O)[C@H](CCCCN)NC(=O)[C@H](CCCCN)NC(=O)[C@H](Cc1ccccc1)NC(=O)[C@@H](NC(=O)[C@@H](N)CCCNC(=N)N)C(C)C)C(=O)N[C@@H](Cc1ccc(O)cc1)C(=O)N[C@@H](Cc1c[nH]cn1)C(=O)N[C@@H](CCCNC(=N)N)C(=O)N[C@H](C(=O)N[C@@H](Cc1c[nH]c2ccccc12)C(=O)N[C@@H](CCCNC(=N)N)C(=O)N[C@@H](CC(C)C)C(=O)N[C@@H](Cc1c[nH]c2ccccc12)C(=O)NCC(=O)N[C@@H](Cc1c[nH]cn1)C(=O)N[C@@H](CC(C)C)C(N)=O)C(C)C [Off1] (H-RVFKKFHPIYHRVWRLWGHL-NH2)	49 ± 2	27.4 ± 0.5	56 ± 7	> 200	
CC[C@H](C)[C@H](NC(=O)[C@H](CCCCN)NC(=O)[C@H](CCCCN)NC(=O)[C@@H](NC(=O)[C@@H](NC(=O)[C@@H](N)CCC(N)=O)[C@@H](C)CC)[C@@H](C)CC)C(=O)N[C@@H](CCCNC(=N)N)C(=O)N[C@H](C(=O)N[C@@H](Cc1c[nH]c2ccccc12)C(=O)N[C@@H](Cc1ccc(O)cc1)C(=O)N[C@@H](CCCNC(=N)N)C(=O)N[C@@H](CCCCN)C(=O)N[C@@H](C)C(=O)N[C@@H](Cc1c[nH]c2ccccc12)C(=O)N[C@@H](Cc1c[nH]cn1)C(=O)N[C@H](C(=O)N[C@@H](CC(C)C)C(=O)NCC(=O)N[C@@H](CCCCN)C(=O)N[C@H](C(N)=O)C(C)C)C(C)C)[C@@H](C)O [Off2.2] (H-QIIKKIRTWYRKAWHVLGKV-NH2)	20 ± 1	11.6 ± 0.8	42 ± 7		> 200
CC[C@H](C)[C@H](NC(=O)[C@@H](NC(=O)[C@H](Cc1c[nH]cn1)NC(=O)[C@H](Cc1ccccc1)NC(=O)[C@H](C)NC(=O)[C@H](CCCCN)NC(=O)[C@H](CCCNC(=N)N)NC(=O)[C@H](Cc1ccc(O)cc1)NC(=O)[C@H](Cc1c[nH]c2ccccc12)NC(=O)[C@@H](NC(=O)[C@H](CCCNC(=N)N)NC(=O)[C@@H](NC(=O)[C@H](CCCCN)NC(=O)[C@H](CCCCN)NC(=O)[C@H](CC(C)C)NC(=O)[C@@H](NC(=O)[C@@H](N)CCC(N)=O)C(C)C)C(C)C)[C@@H](C)O)C(C)C)C(=O)NCC(=O)N[C@@H](CCCCN)C(=O)N[C@H](C(N)=O)C(C)C [Off2.2.4] (H-QVLKKVRTWYRKAFHVIGKV-NH2)	> 100	68 ± 5	> 100	> 200	

— publication PMC6677754, “In silico design and optimization of selective membranolytic anticancer peptides” (Scientific Reports, 2019)
